In patent US20260008805A1, “ADENOSINE ANALOGS FOR THE TREATMENT OF DISEASE” (BIOINTERVENE, INC., priority 2022, published 2026):

biological target: T1, human A3 receptors (Homo sapiens, UniProt P0DMS8); assay: Adenosine receptor binding assay ([3H]HEMADO competition); conditions: Table 1, membranes of HEK-293 cells expressing human A3 receptor, Cheng-Prusoff, read-out: hA3 Ki
T1 construct: expressed in transfected cells; host or cells: HEK-293 cells, stably transfected; membrane preparation
T1 sequence (P0DMS8 1-318): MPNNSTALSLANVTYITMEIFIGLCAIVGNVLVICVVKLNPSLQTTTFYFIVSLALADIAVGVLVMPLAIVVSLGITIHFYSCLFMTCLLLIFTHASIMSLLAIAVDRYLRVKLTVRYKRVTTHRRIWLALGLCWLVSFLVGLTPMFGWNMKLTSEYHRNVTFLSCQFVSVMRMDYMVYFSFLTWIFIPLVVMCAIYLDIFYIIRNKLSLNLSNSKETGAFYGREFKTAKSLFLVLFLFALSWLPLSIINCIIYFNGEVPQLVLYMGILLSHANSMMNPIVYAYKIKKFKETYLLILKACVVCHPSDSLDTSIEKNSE
Source text: Materials and Reference Compounds: [^3H] HEMADO (obtained from (ARC, Cat: ART1456) and [3H] DPCPX (obtained from PerkinElmer Cat no. NET974250UC)). IB-MECA was obtained from Tocris (Bristol, UK) and N6-cyclopentyl adenosine (CPA) is obtained from Sigma-Alrich (Poole, UK). Cell culture media, G418 and hygromycin are obtained from Invitrogen (Paisley, UK). Fetal calf serum is obtained from Perbio Science (Cheshire, UK). All other reagents are obtained from Fisher Chemicals (Loughborough, UK).
The method followed is that of Yates L, Clark J H, Martin T J, James S, Broadley K J, Kidd E J. Radioligand binding and functional responses of ligands for human recombinant adenosine A3 receptors. Auton Autacoid Pharmacol. 2006; 26 (2): 191-200. Cells stably transfected with the human adenosine A3 or A1 receptor are grown in Dulbecco's modified Eagles medium with nutrient mixture F12 containing NaHCO3 and Glutamax. Media is supplemented with 10% fetal calf serum, geneticin (G418; 0.67 mg/mL), hygromycin (500 μg/mL) and adenosine deaminase (1 U/mL). Cells are maintained at 37° C. with 5% CO2 in air. Cells are harvested and homogenized in ice-cold Tris buffer [50 mM Tris, 150 mM NaCl, 1 mM ethylenediaminetetraacetic acid (EDTA), pH 7.4] supplemented with the peptidase inhibitors, 4-(2-aminoethyl)benzene sulfonylfluoride (1 mM) and bacitracin (0.1 mg/mL), using a Polytron homogenizer (3×10 s bursts). The homogenate is spun for 10 min (4° C.) at 500 g. The supernatant is retained and the pellet is re-suspended in the buffer, homogenized and spun as above. The combined supernatants are centrifuged for 15 min (4° C.) at 48,000 g. The resultant pellet is re-suspended in the buffer and centrifuged for a second time at 48,000 g. The membrane pellet is then suspended in Tris buffer containing no peptidase inhibitors or adenosine deaminase and stored at −80° C. at a protein concentration of 1 mg/mL.
Binding Assays: Radioligand-binding assays are performed using the adenosine A3 receptor agonist [^3H] HEMADO and the A1 receptor […] [^3H] DPCPX. Binding assays are conducted in a total volume of 100 μL containing a 50 mM Tris, pH 7.4 buffer with or without 10 mM MgCl2, 20 μg membranes and either 4.154 nM [3H] HEMADO (for the A3 receptor) or 1.6065 nM [^3H] DPCPX (for the A1 receptor). Assays are conducted at room temperature for 60 min (A1 receptor) or 120 min (A3 receptor) and terminated by the addition of 2 ml of ice-coldish buffer (50 mM Tris, pH 7.4 with or without 10 mM MgCl2) and rapid filtration over 0.03% polyethylenimine-treated Whatman GF/C filters using a Brandel cell harvester (Semat International Ltd., St Albans, UK). Filters are then ished three times with 2 ml of ice-cold buffer. The filter-bound radioactivity are counted using a Compugamma counter (LKB Wallac, Turku, Finland). Competition experiments are performed to investigate the ability of reference compounds and embodiments of the invention to inhibit [^3H] HEMADO binding. Non-specific binding are determined using the respective compound at its highest concentration.
Data Analysis: The Kd and Bmax values for binding data are calculated based upon the molar amounts of bound and free [^3H] HEMADO. […] IC50 and Ki values and Hill slopes for inhibition of the radioligand binding by the compounds of the invention are calculated from the ligand competition curves using the Excel spreadsheet and the Kd value calculated for either [^3H] HEMADO or [^3H] DPCPX. The results are expressed as a percent of control specific binding and as a percent inhibition of control specific binding obtained in the presence of the compounds of the invention. The IC50 values (concentration causing a half-maximal inhibition of control specific binding) and Hill coefficients (nH) are determined by non-linear regression analysis of the competition curves generated with mean replicate values using Hill equation curve fitting: […]

Ki | SMILES
151 nM | Cc1cc2c(Cl)nc3c(ncn3[C@H]3[C@H](O)[C@H](O)[C@]4(c5ncnn5C)C[C@H]34)c2[nH]1 [Compound 7B]
> 806 nM | CCNc1cc(Cl)nc2c1ncn2[C@H]1[C@H](O)[C@H](O)[C@]2(c3nnnn3C)C[C@H]12 [Compound 11B]

same assay, conditions: Table 2, membranes of HEK-293 cells expressing human A3 receptor, Cheng-Prusoff, read-out: hA3 Ki

Ki | SMILES
1.79 nM | CNC(=O)[C@H]1O[C@@H](n2cnc3c4[nH]c(C)cc4c(Cl)nc32)[C@H](O)[C@@H]1O [1A*]
0.543 nM | CNC(=O)[C@@]12C[C@@H]1[C@@H](n1cnc3c4[nH]c(C)cc4c(Cl)nc31)[C@H](O)[C@@H]2O [2A*]
65.7 nM | CC1Cc2c(Cl)nc3c(ncn3[C@H]3[C@H](O)[C@H](O)[C@]4(CO)C[C@H]34)c2N1 (some centres unmarked) [3A*]
1.09 nM | Cc1cc2c(C#N)nc3c(ncn3[C@H]3[C@H](O)[C@H](O)C4C[C@@H]43)c2[nH]1 (some centres unmarked) [4A*]
3.36 nM | CNC(=O)[C@@]12C[C@@H]1[C@@H](n1cnc3c4c(c(Cl)nc31)C(=O)CC(C)N4)[C@H](O)[C@@H]2O (some centres unmarked) [11A*]
24.1 nM | CC1CC(=O)c2c(Cl)nc3c(ncn3[C@@H]3[C@@H](O)[C@@H](O)[C@@]4(CO)C[C@@H]34)c2N1 (some centres unmarked) [13A*]
36 nM | CCOc1nc2c(ncn2[C@H]2[C@H](O)[C@H](O)C3C[C@@H]32)c2[nH]c(C)cc12 (some centres unmarked) [21A*]
1.8 nM | Cc1nc2c(Cl)nc3c(ncn3[C@H]3[C@H](O)[C@H](O)C4C[C@@H]43)c2[nH]1 (some centres unmarked) [22A*]
0.916 nM | O[C@H]1[C@H](n2cnc3c4[nH]c(C(F)F)cc4c(Cl)nc32)[C@H]2CC2[C@H]1O (some centres unmarked) [24A*]
